Experiments:
[1] = system: erythroid cells (peripheral blood cells); experiment: Erythroid cell viability by Calcein-AM fluorescent staining (FIG. 2); format: cell-based
Procedure: Compositions were tested for the ability to directly stimulate erythroid cell growth. Cell growth stimulation is a useful property for an agent to be used to treat anemias and distinguishes such agents from the cytotoxic drugs currently being tested for treatment of hemoglobinopathies. Cell viability analyses were performed using fluorescent staining to detect living cells. Cells were in log phase of growth in 6-well dishes when used in proliferation assays. For enumeration of living cells, wells were washed once with medium to remove nonadherent or dead cells. Remaining live cells were labeled with 2 μM 2′,7′-bis-(carboxyethyl)-5-(and 6)-carboxy-fluorescein acetoxy-methyl ester (Calcein-AM) (Molecular Probes; Eugene, Oreg.) for 20 minutes at 37° C. and washed once. Fluorescence intensity of live cells was read on a CytoFluor 2300 Fluorescence Plate Scanner (Millipore; Bedford, Mass.) at excitation and emission wavelengths of 485 and 530 nm, respectively. The fluorescence intensity of a well was proportional to the number of living cells in the well. Background fluorescence was measured separately for each plate and subtracted from all readings. Each experiment was performed in triplicate or quadruplicate. The standard deviation (SD) of repetitive readings was less than 30% of the mean. Results are depicted in FIG. 2.

[2] = system: proximal promoter of the gamma globin gene in K562 cells; experiment: Gamma globin promoter-neomycin (NEO) transfection, colony survival in G418; format: cell-based, human; conditions: 1 mM, 8 weeks
Procedure: Gamma globin promoter-neomycin transfection experiments were performed to determine if compounds act by inducing an increase in activity from the proximal promoter of the gamma globin gene. Constructs containing 61 by of the proximal gamma globin promoter were linked to the reporter gene for neomycin phosphotransferase (NEO) and transfected into permissive K562 cells by electroporation. After 18 hours, transfected cells were passed at 10^3 cells per well into RPMI media containing G418 (neomycin), which kills all mammalian cells unless the gene for NEO is expressed. Phenoxyacetic acid and thiophenoxyacetic acid were added to some of the cells plated into the RPMI/G418 media at concentrations of 1 mM. Cultures were incubated for 8 weeks with media changes performed as needed. Colonies which survived and grew in the presence of G418 were scored and the number of such colonies was compared to those generated when the cells were plated into G418 media without the test compounds. No colonies in the 24 wells survived in the absence of compounds. There was a greater than 6-fold (>600%) increase in proportions of colonies surviving the presence of phenoxyacetic acid (6/24 wells) and a three-fold (300%) increase in survival in the presence of thiophenoxyacetic acid (3/24 wells).

[3] = system: BFU-e (burst forming unit-erythroid) colonies from peripheral blood mononuclear cells; experiment: Stimulation of erythroid proliferation in cell cultures (BFU-e colony growth); format: cell-based, human; conditions: 0.1 mM; 13-14 days; compared with control cultures
Procedure: Peripheral blood was collected from normal volunteers and patients with anemia due to sickle cell disease or thalassemia. Mononuclear cells were isolated by Ficoll-Hypaque (Pharmacia Biotech; Piscataway, N.J.) centrifugation and cultured in Iscove's Modified Dulbecco's Media (IMDM; GIBCO/BRL; Grand Island, N.Y.) supplemented with 10% fetal calf serum, 300 μg/ml glutamine, 3 units/ml IL-3 (Amgen; Thousand Oaks, Calif.), and 2 units/ml erythropoietin (Terry Fox Labs; Vancouver, B.C.). Chemical compounds were obtained from Sigma Chemical (St. Louis, Mo.) or Aldrich Chemical (Milwaukee, Wis.), unless otherwise indicated, and formulated into pharmaceutical compositions by dissolving in aqueous solutions of media or sterile water pH adjusted to about 7.4. Solutions were sterilized by passage at least once through 0.22 micron Nalgene filters and added to cell cultures at final concentrations that are pharmaceutically achievable in vivo (typically between about 0.1 mM to 2.0 mM). Cells were incubated with compounds for between 13-14 days at 37° C. in humidified 5% CO2, and fed and passed, as necessary. Colony growth, proportion of fetal globin-expressing cells and amounts of fetal globin production were assayed. Results are presented in Table 1 as BFU-e stimulation (colony growth).

[4] = system: erythroid progenitor cells cultured from human cord blood; experiment: Fetal globin expression in human cell cultures (3H-leucine labelled globin chains, densitometry); format: cell-based
Summary of the method: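 Human cord-blood mononuclear cells were grown in IMDM with 30% FCS and 2 U/ml erythropoietin, with compound present for 12–13 days or overnight. Colonies were labelled with 3H-leucine and chased overnight in leucine-free medium with compound. Globin chains were quantified by electrophoresis with Coomassie densitometry and autoradiography, relative to untreated cells from the same donor.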

| Compound | erythroid cell growth and proliferation compared to untreated controls (FIG. 2) ([1]; 0.2 mM) | erythroid cell growth and proliferation compared to untreated controls (FIG. 2) ([1]; 0.5 mM) | increase in proportions of colonies surviving G418 [2] [%] | wells with surviving colonies ([2]; 0 of 24 wells without compounds) | increase in proportions of colonies surviving G418 ([2]; no colonies without compounds) | BFU-e Stimulation (colony growth) [3] [%] | Gamma Increase ([4]; Exp. A, 0.1 mM, 12-13 days, above untreated cells) [%] | Gamma/(Gamma + Beta) ([4]; Exp. A, 0.1 mM, 12-13 days, untreated 76.0%) [%] | Gamma Increase ([4]; Exp. B, 0.5 mM, 12-13 days) [%] | Gamma/(Gamma + Beta) ([4]; Exp. B, 0.5 mM, 12-13 days, untreated 25.4%, 27.5%) [%] | Gamma Increase ([4]; Exp. C, 0.5 mM, overnight) [%] | Gamma/(Gamma + Beta) ([4]; Exp. C, 0.5 mM, overnight, untreated 52.0%) [%] |
| --- | --- | --- | --- | --- | --- | --- | --- | --- | --- | --- | --- | --- |
| CCCC(=O)O [AB, arginine butyrate] | inhibited proliferation | inhibited proliferation |  |  |  |  |  |  |  |  |  |  |
| O=C(O)COc1ccccc1 [PAA, Phenoxyacetic acid] |  | either had no effect or stimulated erythroid cell growth and proliferation | > 600 | 6/24 | greater than 6 fold | 135 | 6 | 82.0 | 13 | 38.8 | 3.6 | 55.6 |

Source: patent publication US7910624B1, “Compositions for the treatment of blood disorders” (The Trustees of Boston University, priority 1995, dated 2011)
